Measured values: US20240067693A1, “POLYPEPTIDES AND USES THEREOF” (MEDIMMUNE LIMITED, priority 2020, published 2024)
Numbered stars: 1 amine (or outer) side, 2 acyl side, 3 side chain; on linkers, the order of the positions; unused ones are H or OH. Bridge positions count the residues as written; N and C are the ends. Square brackets hold non-standard residues; d marks the D form. Side chains are listed from the residue outwards. Peptide text beside a SMILES is read from it. * marks the point of attachment. C18 diacid = O=C(O)CCCCCCCCCCCCCCCCC(=O)*; γGlu = O=C(O)[C@H](CCC(=O)[*:2])N[*:1]; Dab = NCC[C@H](N)C(=O)O; Aib = CC(C)(N)C(=O)O

Experiments:
[1] = target: T1, human amylin receptor (calcitonin receptor co-expressed with receptor activity modifying protein, RAMP3) (hAMYR3) (Homo sapiens, UniProt O60896+P30988); test: cAMP production in 1321N1 cells with stable recombinant expression of human amylin receptor (hAMYR3); type: cell-based; conditions: for Ratio (selectivity hAMYR vs hCTR, ratio of EC50 values at the two receptors): EC50 hCTR / EC50 hAMYR3; for EC50: cAMP, 1321N1 cells, assay buffer with 0.1% BSA, read-out: EC50 (pM) hAMYR3
T1 construct: expressed in transfected cells
T1 sequence (P30988 25-474): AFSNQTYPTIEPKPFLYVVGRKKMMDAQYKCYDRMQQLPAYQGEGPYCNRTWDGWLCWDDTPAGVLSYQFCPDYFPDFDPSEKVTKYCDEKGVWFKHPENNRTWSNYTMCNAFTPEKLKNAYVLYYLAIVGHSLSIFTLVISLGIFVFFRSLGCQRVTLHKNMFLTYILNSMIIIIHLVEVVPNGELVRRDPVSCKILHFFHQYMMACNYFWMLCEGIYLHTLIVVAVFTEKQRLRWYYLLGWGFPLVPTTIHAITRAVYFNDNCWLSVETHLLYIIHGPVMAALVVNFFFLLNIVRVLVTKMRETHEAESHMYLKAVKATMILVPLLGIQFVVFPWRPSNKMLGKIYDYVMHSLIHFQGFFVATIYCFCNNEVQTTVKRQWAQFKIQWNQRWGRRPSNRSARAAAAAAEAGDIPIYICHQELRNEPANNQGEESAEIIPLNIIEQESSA
T1 sequence (O60896 24-148 partner): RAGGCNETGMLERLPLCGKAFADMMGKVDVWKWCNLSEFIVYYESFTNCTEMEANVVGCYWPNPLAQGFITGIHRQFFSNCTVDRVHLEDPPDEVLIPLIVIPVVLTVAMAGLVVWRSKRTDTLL
Summary of the method: (§1)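 Receptor-expressing cells (human receptors in 1321N1, rat receptors in HEK) incubated 30 min at room temperature with peptide in HBSS/HEPES pH 7.4, 0.1% BSA, 0.5 mM IBMX. cAMP read by HTRF; EC50 from 4-parameter fit as % of maximal amylin or calcitonin response.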

[2] = Thioflavin T fibrillation assay; type: physicochemical; conditions: ThT fibrillation assay; peptide 1 mg/mL in 25 mM sodium acetate buffer pH 4.0; 6 days at 37 °C with shaking; >144 h = no increase
Description: Peptide aggregation that form fibrils is an indication of physical instability. Fibril formation in solution poses a significant risk for the stability of injectable peptide drug products. Thioflavin T (ThT) fibrillation assay is a useful tool to assess the aggregation kinetics of a peptide or protein under accelerated and stressed conditions that can be used to forecast the long-term viability of a compound in solution. ThT can selectively bind amyloid fibrils and the resultant complex emits strong fluorescence signal at 482 nm when excited at 450 nm (Anal Biochem. 1989 Mar;177(2):244-9). Monitoring of the change in fluorescence signal is an established method to study the fibril forming potential of peptides and proteins. ThT (purchased from Sigma Aldrich) stock solution is prepared by dissolving the ThT powder in Milli-Q water and filtered to obtain a 0.25 mM solution. The concentration of the solution is measured at 412 nm using an extinction coefficient of 36 mM^−1cm^−1. Test peptides were dissolved at 1 mg/mL in 25 mM sodium acetate buffer pH 4.0. 100 μL aliquot of peptide solution and 5 μL aliquot of ThT solution were placed in a clear bottom black fluorescence 96-well plate. 5 replicates of each test samples were placed in zo the same row of the plate. Buffer was placed in control wells for baseline correction. All empty wells were filled with water to prevent evaporation. The plate was sealed with aluminium seal and placed in fluorescence plate reader and incubated for 6 days at 37 ° C. with intermittent orbital shaking at 500 to 750 rpm. The fluorescence intensity was measured every 30 min using excitation at 444 nm and emission at 480 nm. The fibril forming potential of the test peptides was determined by measuring the average time taken to detect an increase in baseline corrected fluorescence intensity.

[3] = target: T2, human calcitonin receptor (hCTR) (Homo sapiens, UniProt P30988); test: cAMP production in 1321N1 cells with stable recombinant expression of human calcitonin receptor (hCTR); type: cell-based; conditions: cAMP, 1321N1 cells, assay buffer with 0.1% BSA; read-out: EC50 (pM) hCTR
T2 construct: expressed in transfected cells
T2 sequence (P30988 25-474): T1 sequence (P30988 25-474)
Summary of the method: as §1

Structure (SMILES) | Ratio (selectivity hAMYR vs hCTR, ratio of EC50 values at the two receptors) [1] | EC50 [1] | Time taken to detect increase in fluorescence intensity [2] | EC50 [3]
CC[C@H](C)[C@H](NC(=O)[C@@H]1CCCN1C(=O)CNC(=O)[C@H](Cc1ccccc1)NC(=O)[C@H](CC(N)=O)NC(=O)[C@H](CCN)NC(=O)[C@H](CO)NC(=O)[C@H](CO)NC(=O)[C@H](Cc1c[nH]cn1)NC(=O)[C@@H](NC(=O)[C@H](CC(C)C)NC(=O)[C@H](Cc1ccccc1)NC(=O)[C@H](CC(N)=O)NC(=O)[C@H](C)NC(=O)[C@H](CC(C)C)NC(=O)[C@H](CCCNC(=N)N)NC(=O)[C@H](CCC(N)=O)NC(=O)[C@@H](NC(=O)[C@H](C)NC(=O)[C@@H]1CSSC[C@H](NC(=O)[C@H](CCCCN)NC(=O)[C@@H](N)CCCCNC(=O)CC[C@H](NC(=O)CCCCCCCCCCCCCCCCC(=O)O)C(=O)O)C(=O)N[C@@H](CC(N)=O)C(=O)N[C@@H]([C@@H](C)O)C(=O)N[C@@H](C)C(=O)N[C@@H]([C@@H](C)O)C(=O)N1)[C@@H](C)O)C(C)C)C(=O)N[C@@H](CC(C)C)C(=O)N1CCC[C@H]1C(=O)N1CCC[C@H]1C(=O)N[C@H](C(=O)N[C@@H](CCC(=O)O)C(=O)N[C@H](C(=O)NCC(=O)N[C@@H](CO)C(=O)N[C@@H](CC(N)=O)C(=O)N[C@H](C(=O)N[C@@H](Cc1ccc(O)cc1)C(N)=O)[C@@H](C)O)C(C)C)[C@@H](C)O [Peptide 28, K(γE-C18diacid)K[CNTATC]ATQRLANFLVHSS(Dab)NFGPILPPTEVGSNTY-amide] (H-K([γGlu-C18 diacid])KCNTATCATQRLANFLVHSS[Dab]NFGPILPPTEVGSNTY-NH2; disulfide 3-8; N-terminus assumed) | 23 | 390 pM | 45 h | 9140 pM
CC[C@H](C)[C@H](NC(=O)[C@@H]1CCCN1C(=O)CNC(=O)[C@H](Cc1ccccc1)NC(=O)[C@H](CC(N)=O)NC(=O)[C@H](CC(N)=O)NC(=O)[C@H](CO)NC(=O)[C@H](CO)NC(=O)[C@H](Cc1c[nH]cn1)NC(=O)[C@@H](NC(=O)[C@H](CC(C)C)NC(=O)[C@H](Cc1ccccc1)NC(=O)[C@H](CCN)NC(=O)[C@H](C)NC(=O)[C@H](CC(C)C)NC(=O)[C@H](CCCNC(=N)N)NC(=O)[C@H](CCC(N)=O)NC(=O)[C@@H](NC(=O)[C@H](C)NC(=O)[C@@H]1CSSC[C@H](NC(=O)[C@H](CCCCN)NC(=O)[C@@H](N)CCCCNC(=O)CC[C@H](NC(=O)CCCCCCCCCCCCCCCCC(=O)O)C(=O)O)C(=O)N[C@@H](CC(N)=O)C(=O)N[C@@H]([C@@H](C)O)C(=O)N[C@@H](C)C(=O)N[C@@H]([C@@H](C)O)C(=O)N1)[C@@H](C)O)C(C)C)C(=O)N[C@@H](CC(C)C)C(=O)N1CCC[C@H]1C(=O)N1CCC[C@H]1C(=O)N[C@H](C(=O)N[C@@H](CC(N)=O)C(=O)N[C@H](C(=O)NCC(=O)N[C@@H](CO)C(=O)N[C@@H](CC(N)=O)C(=O)N[C@H](C(=O)N[C@@H](Cc1ccc(O)cc1)C(N)=O)[C@@H](C)O)C(C)C)[C@@H](C)O [Peptide 33] (H-K([γGlu-C18 diacid])KCNTATCATQRLA[Dab]FLVHSSNNFGPILPPTNVGSNTY-NH2; disulfide 3-8; N-terminus assumed) | 26 | 598 pM | >144 h | 15800 pM
CC[C@H](C)[C@H](NC(=O)[C@@H]1CCCN1C(=O)CNC(=O)[C@H](Cc1ccccc1)NC(=O)[C@H](CC(N)=O)NC(=O)[C@H](CC(N)=O)NC(=O)[C@H](CO)NC(=O)[C@H](CO)NC(=O)[C@H](Cc1c[nH]cn1)NC(=O)[C@@H](NC(=O)[C@H](CC(C)C)NC(=O)[C@H](Cc1ccccc1)NC(=O)[C@H](CC(N)=O)NC(=O)[C@H](C)NC(=O)[C@H](CC(C)C)NC(=O)[C@H](CCCNC(=N)N)NC(=O)[C@H](CCC(N)=O)NC(=O)[C@@H](NC(=O)[C@H](C)NC(=O)[C@@H]1CSSC[C@H](NC(=O)[C@@H](N)CCCCNC(=O)CC[C@H](NC(=O)CCCCCCCCCCCCCCCCC(=O)O)C(=O)O)C(=O)N[C@@H](CC(N)=O)C(=O)N[C@@H]([C@@H](C)O)C(=O)N[C@@H](C)C(=O)N[C@@H]([C@@H](C)O)C(=O)N1)[C@@H](C)O)C(C)C)C(=O)N[C@H](CC(C)C)C(=O)N1CCC[C@H]1C(=O)N1CCC[C@H]1C(=O)N[C@H](C(=O)N[C@@H](CC(N)=O)C(=O)N[C@H](C(=O)NCC(=O)N[C@@H](CO)C(=O)N[C@@H](CC(N)=O)C(=O)N[C@H](C(=O)N[C@@H](Cc1ccc(O)cc1)C(N)=O)[C@@H](C)O)C(C)C)[C@@H](C)O [Peptide 103, K(γE-C18diacid)[CNTATC]ATQRLANFLVHSSNNFGPI(dL)PPTNVGSNTY-amide] (H-K([γGlu-C18 diacid])CNTATCATQRLANFLVHSSNNFGPI[dL]PPTNVGSNTY-NH2; disulfide 2-7; N-terminus assumed) | 12 | 161 pM | <5 h | 1880 pM
CC[C@H](C)[C@H](NC(=O)[C@@H]1CCCN1C(=O)CNC(=O)[C@H](Cc1ccccc1)NC(=O)[C@H](CC(N)=O)NC(=O)[C@H](CC(N)=O)NC(=O)[C@H](CO)NC(=O)[C@H](CO)NC(=O)[C@H](Cc1c[nH]cn1)NC(=O)[C@@H](NC(=O)[C@H](CC(C)C)NC(=O)[C@H](Cc1ccccc1)NC(=O)[C@H](CC(N)=O)NC(=O)[C@H](C)NC(=O)[C@H](CC(C)C)NC(=O)[C@H](CCCNC(=N)N)NC(=O)[C@H](CCC(N)=O)NC(=O)[C@@H](NC(=O)[C@H](C)NC(=O)[C@@H]1CSSC[C@H](NC(=O)[C@@H](N)CCCCNC(=O)CC[C@H](NC(=O)CCCCCCCCCCCCCCCCC(=O)O)C(=O)O)C(=O)N[C@@H](CC(N)=O)C(=O)N[C@@H]([C@@H](C)O)C(=O)N[C@@H](C)C(=O)N[C@@H]([C@@H](C)O)C(=O)N1)[C@@H](C)O)C(C)C)C(=O)N[C@@H](CC(C)C)C(=O)N1CCC[C@@H]1C(=O)N1CCC[C@H]1C(=O)N[C@H](C(=O)N[C@@H](CC(N)=O)C(=O)N[C@H](C(=O)NCC(=O)N[C@@H](CO)C(=O)N[C@@H](CC(N)=O)C(=O)N[C@H](C(=O)N[C@@H](Cc1ccc(O)cc1)C(N)=O)[C@@H](C)O)C(C)C)[C@@H](C)O [Peptide 104] (H-K([γGlu-C18 diacid])CNTATCATQRLANFLVHSSNNFGPIL[dP]PTNVGSNTY-NH2; disulfide 2-7; N-terminus assumed) | 23 | 79 pM | <5 h | 1820 pM
CC[C@H](C)[C@H](NC(=O)[C@@H]1CCCN1C(=O)CNC(=O)[C@H](Cc1ccccc1)NC(=O)[C@H](CC(N)=O)NC(=O)[C@H](CC(N)=O)NC(=O)[C@H](CO)NC(=O)[C@H](CO)NC(=O)[C@H](Cc1c[nH]cn1)NC(=O)C(C)(C)NC(=O)[C@H](CC(C)C)NC(=O)[C@H](Cc1ccccc1)NC(=O)[C@H](CCN)NC(=O)[C@H](C)NC(=O)[C@H](CC(C)C)NC(=O)[C@H](CCCNC(=N)N)NC(=O)[C@H](CCC(N)=O)NC(=O)[C@@H](NC(=O)[C@H](C)NC(=O)[C@@H]1CSSC[C@H](NC(=O)[C@H](CCCCN)NC(=O)[C@@H](N)CCCCNC(=O)CC[C@H](NC(=O)CCCCCCCCCCCCCCCCC(=O)O)C(=O)O)C(=O)N[C@@H](CC(N)=O)C(=O)N[C@@H]([C@@H](C)O)C(=O)N[C@@H](C)C(=O)N[C@@H]([C@@H](C)O)C(=O)N1)[C@@H](C)O)C(=O)N[C@@H](CC(C)C)C(=O)N1CCC[C@H]1C(=O)N1CCC[C@H]1C(=O)N[C@H](C(=O)N[C@@H](CCC(=O)O)C(=O)N[C@H](C(=O)NCC(=O)N[C@@H](CO)C(=O)N[C@@H](CC(N)=O)C(=O)N[C@H](C(=O)N[C@@H](Cc1ccc(O)cc1)C(N)=O)[C@@H](C)O)C(C)C)[C@@H](C)O [Peptide 156] (H-K([γGlu-C18 diacid])KCNTATCATQRLA[Dab]FL[Aib]HSSNNFGPILPPTEVGSNTY-NH2; disulfide 3-8) | 22.3 | 3750 pM | >144 h | 83800 pM
